The values below come from US10858344B2, “Hydantoin containing deoxyuridine triphosphatase inhibitors” (CV6 Therapeutics (NI) Limited, priority 2016, dated 2020).

This assay addresses recombinant human deoxyuridine nucleotidohydrolase (dUTPase) (Homo sapiens (Human), UniProt P33316). Description: fluorescence-based dUTPase inhibition assay. In kind it is biochemical. Conditions: for % relative inhibition vs. positive control: mean over three concentrations, typically 100, 50 and 25 μmol/L, compared to in-run positive control. From the text:
Recombinant human deoxyuridine nucleotidohydrolase (dUTPase) is expressed and purified as described in Ladner R D, Carr S A, Huddleston M J, McNulty D E, Caradonna S J. J Biol Chem. 1996 Mar. 29; 271(13):7752-7. All drugs stocks are aliquoted and diluted as appropriate prior to use. The oligonucelotide primer, templates and fluorophore- and quencher-labeled detection probes are synthesized by Integrated DNA Technologies (Coralville, Iowa), subjected to polyacrylamide gel electrophoresis purification and reconstituted in Omnipur sterile nuclease-free water (EMD Chemicals USA, Gibbstown N.J.) at a stock concentration of 100 μmol/L. The two non-emissive (dark) quenching molecules incorporated into the detection probes include the Iowa black fluorescein quencher (IBFQ; absorption max 531 nm) and ZEN (non-abbreviation; absorption max 532 nm). The fluorescent label utilized is 6-FAM (5′-carboxyfluorescein; excitation max.=494 nm, emission max.=520 nm). Probes are further diluted to a working stock of 10 μmol/L and aliquoted to avoid repeated freeze/thaw cycles. AmpliTaq Gold DNA Polymerase, GeneAmp 10×PCR Buffer 2, MgCl2 and MicroAmp Optical 96-well Reaction Plates are purchased from Applied Biosystems (Carlsbad, Calif.). dNTPs are purchased individually at stock concentrations of 100 mmol/L from New England Biolabs at HPLC-certified >99% purity (Ipswich, Mass.).
Reaction mixtures contained primer, probe and template at an equimolar final concentration of 0.4 μmol/L. Magnesium chloride (MgCl2) is included at a final concentration of 2 mmol/L. Non-limiting dNTPs are included in the reaction mix in excess at a final concentration of 100 μmol/L (dUTP/dTTP is excluded). AmpliTaq Gold DNA polymerase is added at 0.875 U/reaction, 2.5 μl of 10×PCR buffer 2 added and nuclease-free ddH2O added to a final reaction volume of 25 μl. For dUTP inhibition analysis, the volume of ddH2O is further modified to accommodate an additional 1 μl of dUTPase (10 ng/μl) and 1 μl of inhibitor or DMSO control. Thermal profiling and fluorescence detection is performed using a customized thermal program on board a Roche Lightcycler LC480 Instrument II. For analysis of dNTPs, the thermal profile consisted of an 8 min 37° C. step followed by a 10 min 95° C. step to ‘hot-start’ the Taq polymerase and a primer extension time of up to 30 min at 60° C. Raw fluorescence spectra for 6-FAM is measured at specified time intervals to follow assay progression on board a Roche LightCycler 480 Software Version 1.5 and exported and analyzed in Microsoft Excel (Microsoft, Redmond Wash.) and Prism (GraphPad Software, La Jolla Calif.). Fluorescence values for blank reactions (limiting dNTP omitted) are subtracted to give normalized fluorescence units (NFU) to account for background fluorescence.
Test compounds are screened in a fluorescence-based assay. The assay employs a DNA polymerase-based approach utilizing an oligonucleotide template with 3 distinct regions: a 3′ primer binding region, a mid-template dUTP/thymidine triphosphate (TTP) detection region and a 5′ 6-[…] (FAM)-labeled probe binding region that incorporates a black hole quenching moiety. During the reaction, the probe and primer hybridize to the oligonucleotide template to form the template:primer:probe complex. When Taq polymerase binds to the primer in the TPP complex and dUTP is present, successful extension of the nascent strand occurs and the inherent 5′ to 3′ exonuclease activity of Taq polymerase cleaves and displaces the 6-FAM-labeled probe in a 5′ to 3′ direction, releasing the 6-FAM fluorophore from its proximity to the three quenchers. This displacement effectively disrupts the Förster resonance energy transfer (FRET) and the resulting fluorescence detected upon excitation is directly proportional to the amount of the dUTP available in the assay for incorporation. […]

Chain of recombinant human deoxyuridine nucleotidohydrolase (dUTPase) (P33316 other isoform, or with tags, fused parts or gaps): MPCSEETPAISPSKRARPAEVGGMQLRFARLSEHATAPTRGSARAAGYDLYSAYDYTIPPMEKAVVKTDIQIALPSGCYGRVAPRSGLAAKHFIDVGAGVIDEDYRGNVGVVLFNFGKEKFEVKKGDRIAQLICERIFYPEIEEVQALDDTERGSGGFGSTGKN

One may read the IC50 as the concentration that inhibits the measured activity by half. `C[C@@H](NS(=O)(=O)CCCCCN1CC(=O)NC1=O)c1ccc(F)c(OC2CCC2)c1` [Example 83, (R)—N-(1-(3-cyclobutoxy-4-fluorophenyl)ethyl)-5-(2,4-dioxoimidazolidin-1-yl)pentane-1-sulfonamide]: the IC50 amounted to 2 µM and the “% relative inhibition vs. positive control” value amounted to 37%.
The like results for `C[C@@H](NS(=O)(=O)CCn1ccc(N2CC(=O)NC2=O)n1)c1ccc(F)c(OCC2CC2)c1` [Example 106, (R)—N-(1-(3-(cyclopropylmethoxy)-4-fluorophenyl)ethyl)-2-(3-(2,4-dioxoimidazolidin-1-yl)-1H-pyrazol-1-yl)ethane-1-sulfonamide] were, in that order, 150 µM and 1%.
Turning to `C[C@@H](NS(=O)(=O)C/C=C/CCC1(C)NC(=O)NC1=O)c1ccc(F)c(OCC2CC2)c1` (stereo partly drawn) [127a, (E)-N—((R)-1-(3-(cyclopropylmethoxy)-4-fluorophenyl)ethyl)-5-(4-methyl-2,5-dioxoimidazolidin-4-yl) pent-2-ene-1-sulfonamide], the “% relative inhibition vs. positive control” value turned out to be 37%.
With `C[C@@H](NS(=O)(=O)CCCCCN1CC(=O)N(COCC[Si](C)(C)C)C1=O)c1ccc(F)c(OCC2CC2)c1` [Example 95, (R)—N-(1-(3-(cyclopropylmethoxy)-4-fluorophenyl)ethyl)-5-(2,4-dioxo-3-((2-(trimethylsilyl)ethoxy)methyl)-imidazolidin-1-yl)pentane-1-sulfonamide], the IC50 was over 25 µM and the “% relative inhibition vs. positive control” value was 0%.
With `CC(C)COc1cc([C@@H](C)NS(=O)(=O)CC/C=C/CN2C(=O)NC(=O)[C@H]2C)ccc1F` [Compound 108a, (E)-N—((R)-1-(4-fluoro-3-isobutoxyphenyl)ethyl)-5-((R)-5-methyl-2,4-dioxoimidazolidin-1-yl)pent-3-ene-1-sulfonamide], the “% relative inhibition vs. positive control” value is 123%.
The same measure, in the same setting: the same measure for `C[C@@H](NS(=O)(=O)CC/C=C/CN1C(=O)NC(=O)[C@@H]1C)c1ccc(F)c(OCC2CC2)c1` [Compound 107a, (E)-N—((R)-1-(3-(cyclopropylmethoxy)-4-fluorophenyl)ethyl)-5-((S)-5-methyl-2,4-dioxoimidazolidin-1-yl)pent-3-ene-1-sulfonamide]: 153%; for `CC(C)COc1cc([C@@H](C)NS(=O)(=O)CCCOCN2CC(=O)NC2=O)ccc1F` [Example 116, (R)-3-((2,4-dioxoimidazolidin-1-yl)methoxy)-N-(1-(4-fluoro-3-isobutoxyphenyl)ethyl)propane-1-sulfonamide]: 173%; for `O=C1CN(CCCCCS(=O)(=O)NC(c2ccc(F)c(OCC3CC3)c2)C2CC2)C(=O)N1` (stereo not shown) [Example 104, N-(cyclopropyl (3-(cyclopropylmethoxy)-4-fluorophenyl)methyl)-5-(2,4-dioxoimidazolidin-1-yl) pentane-1-sulfonamide]: 57%.
In the case of `[2H]C([2H])(Oc1cc([C@@H](C)NS(=O)(=O)CCCCCN2CC(=O)NC2=O)ccc1F)C1CC1` [Example 97, (R)—N-(1-(3-(cyclopropylmethoxy-d2)-4-fluorophenyl)ethyl)-5-(2,4-dioxoimidazolidin-1-yl)pentane-1-sulfonamide], the “% relative inhibition vs. positive control” value turned out to be 182%.
Same read-out and setting: the same measure for `C[C@@H](NS(=O)(=O)CC/C=C/CC1CC(=O)NC1=O)c1ccc(F)c(OCC2CC2)c1` (stereo partly drawn) [compound 125, (E)-N—((R)-1-(3-(cyclopropylmethoxy)-4-fluorophenyl)ethyl)-5-(2,5-dioxopyrrolidin-3-yl)pent-3-ene-1-sulfonamide]: 71%.
Take `C[C@@H](NS(=O)(=O)CCCCCN1CC(=O)NC1=O)c1ccc(F)c(OCc2nn[nH]n2)c1` [Example 102, (R)—N-(1-(3-((2H-tetrazol-5-yl)methoxy)-4-fluorophenyl)ethyl)-5-(2,4-dioxoimidazolidin-1-yl)pentane-1-sulfonamide]: the IC50 was over 25 µM and the “% relative inhibition vs. positive control” value is 0%.
`CC(C)C(NS(=O)(=O)CCCCCN1CC(=O)NC1=O)c1ccc(F)c(OCC2CC2)c1` (stereo not shown) [Example 103, N-(1-(3-(cyclopropylmethoxy)-4-fluorophenyl)-2-methylpropyl)-5-(2,4-dioxoimidazolidin-1-yl)pentane-1-sulfonamide]: the “% relative inhibition vs. positive control” value worked out at 27%.
Still for that read-out and setting: the same measure for `C[C@@H](NS(=O)(=O)CCCCCC1CC(=O)NC1=O)c1ccc(F)c(OCC2CC2)c1` (stereo partly drawn) [compound 126, N—((R)-1-(3-(cyclopropylmethoxy)-4-fluorophenyl)ethyl)-5-(2,5-dioxopyrrolidin-3-yl)pentane-1-sulfonamide]: 152%.
As to `C[C@@H](NS(=O)(=O)CCCCCN1CC(=O)NC1=O)c1ccc(F)c(OS(=O)(=O)C(F)(F)F)c1` [Example 94, (R)-5-(1-((5-(2,4-dioxoimidazolidin-1-yl)pentyl)sulfonamido)ethyl)-2-fluorophenyl trifluoromethanesulfonate], the IC50 worked out at 150 µM and the “% relative inhibition vs. positive control” value stood at 1%.
Take `CC(C)COc1cc(C2(NS(=O)(=O)CCCCCN3C(=O)NC(=O)C3(C)C)CC2)ccc1F` [118b, 5-(5,5-dimethyl-2,4-dioxoimidazolidin-1-yl)-N-(1-(4-fluoro-3-isobutoxyphenyl)cyclopropyl)pentane-1-sulfonamide]: the “% relative inhibition vs. positive control” value turned out to be 19%.
Still for that read-out and setting: the same measure for `C[C@@H](NS(=O)(=O)CCCCCN1C(=O)NC(=O)[C@@H]1C)c1ccc(F)c(OCC2CC2)c1` [Compound 107b, N—((R)-1-(3-(cyclopropylmethoxy)-4-fluorophenyl)ethyl)-5-((S)-5-methyl-2,4-dioxoimidazolidin-1-yl)pentane-1-sulfonamide]: 154%; for `C[C@H]1C(=O)NC(=O)N1CCCCCS(=O)(=O)NC1(c2cccc(OCC3CC3)c2)CC1` [123b, (S)—N-(1-(3-(cyclopropylmethoxy)phenyl)cyclopropyl)-5-(5-methyl-2,4-dioxoimidazolidin-1-yl)pentane-1-sulfonamide]: 102%; for `CC1(C)C(=O)NC(=O)N1C/C=C/CCS(=O)(=O)NC1(c2ccc(F)c(OCC(F)F)c2)CC1` [compound 121, (E)-N-(1-(3-(2,2-difluoroethoxy)-4-fluorophenyl)cyclopropyl)-5-(5,5-dimethyl-2,4-dioxoimidazolidin-1-yl)pent-3-ene-1-sulfonamide]: 21%.
As for `C[C@@H](NS(=O)(=O)CCCOCN1CC(=O)NC1=O)c1ccc(F)c(OC2CCCC2)c1` [Example 85, (R)—N-(1-(3-(cyclopentyloxy)-4-fluorophenyl)ethyl)-3-((2,4-dioxoimidazolidin-1-yl)methoxy)propane-1-sulfonamide], the “% relative inhibition vs. positive control” value is reported as 187%.
As to `C[C@@H](NS(=O)(=O)CCCCCN1CC(=O)NC1=O)c1ccc(F)c(NCC2CC2)c1` [Example 96, (R)—N-(1-(3-((cyclopropylmethyl)amino)-4-fluorophenyl)ethyl)-5-(2,4-dioxoimidazolidin-1-yl)pentane-1-sulfonamide], the IC50 came to 4 µM and the “% relative inhibition vs. positive control” value turned out to be 19%.
In the case of `CCOc1cc([C@@H](C)NS(=O)(=O)CCCCCN2CC(=O)NC2=O)ccc1F` [Example 82, (R)-5-(2,4-dioxoimidazolidin-1-yl)-N-(1-(3-ethoxy-4-fluorophenyl)ethyl)pentane-1-sulfonamide], the IC50 was determined as 3 µM and the “% relative inhibition vs. positive control” value came to 25%.
